Tests used:
[1] = test system: rat Sertoli cell TJs; conditions: cited from earlier work
[2] = test system: human Sertoli cells (MM-HSe-2305 cells); assay: BrdU proliferation of human Sertoli cells in response to FSH treatment; type: cell-based; conditions: 200-ng/ml FSH for 1 week; >50 fields; p<0.001 vs without FSH
Procedure: It has been reported that cultured rat Sertoli cells, proliferate in response to recombinant FSH (Buzzard, Wreford et al. 2002). We determined the response of the human cells to FSH treatment to provide further evidence that they are Sertoli cells. The human Sertoli cells (MM-HSe-2305 cells; 7,000 per well) were placed in 8-well chamber slides and incubated with control media or with media containing 200-ng/ml FSH (Sigma-Aldrich) for 1 week. Then the cells were labeled with BrdU that is incorporated into nuclei during DNA synthesis prior to mitosis. The slides were stained with anti-BrdU antibody (finally stained by Texas red) followed by staining with an antibody to FSHr (finally with FITC), and nuclei marked by bisbenzamide.
Briefly, the MM-HSE-2305 cells were labeled with BrdU (Roche; 100 μM) at 37° C./[…] for 2 hours then washed three times with PBS followed by fixing with 4% PFA for 30 min. […] Fluorescence was enhanced by incubating with ABC solution (Vector laboratories) for 30 min. Immunoreactivity was visualized by fluorescence microscopy using avidin-conjugated Texas red (1:200 in PBS) for 1 hour.
Photomicrographs were taken with different filters of the same field. The percentage of proliferating Sertoli cells was determined by the counting the number of FSHr, BrdU double positive cells and dividing this by the total number of cells per field. […]

Compound | effect on permeability of rodent Sertoli cell monolayers ([1]; effect lasted for a number of days) | effect on Sertoli cell TJs ([1]; in vivo, and in vitro at the 5 and 10 μM concentration) | percent of cells undergoing proliferation (FSHr, BrdU double positive cells / total cells) [2] [%]
[Cl][Cd][Cl] [Cadmium chloride, cadmium chloride] | increased the permeability | damage rat Sertoli cell TJs | –
follicle stimulating hormone [FSH] | – | – | 12.35

From patent US10851348B2, “Proliferative primary human Sertoli cell cultures and their applications” (Mandalmed, Inc., priority 2006, dated 2020)
